Assay results: ChEMBL document CHEMBL1201862, “PubChem BioAssay data set” (2004)
Active and inactive are the calls of the source.

Tests used:
[1] = target: T1, Short transient receptor potential channel 4 (Mus musculus, UniProt Q9QUQ5); assay: mouse TRPC4 channel inhibitors, dose response, cell-based, HEK293 TRPC4/mu-opioid, Fluo-4 calcium (AID 434942); type: functional;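 further: potency of inhibitors blocking the TRPC4 calcium response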
T1 sequence (Q9QUQ5 whole entry): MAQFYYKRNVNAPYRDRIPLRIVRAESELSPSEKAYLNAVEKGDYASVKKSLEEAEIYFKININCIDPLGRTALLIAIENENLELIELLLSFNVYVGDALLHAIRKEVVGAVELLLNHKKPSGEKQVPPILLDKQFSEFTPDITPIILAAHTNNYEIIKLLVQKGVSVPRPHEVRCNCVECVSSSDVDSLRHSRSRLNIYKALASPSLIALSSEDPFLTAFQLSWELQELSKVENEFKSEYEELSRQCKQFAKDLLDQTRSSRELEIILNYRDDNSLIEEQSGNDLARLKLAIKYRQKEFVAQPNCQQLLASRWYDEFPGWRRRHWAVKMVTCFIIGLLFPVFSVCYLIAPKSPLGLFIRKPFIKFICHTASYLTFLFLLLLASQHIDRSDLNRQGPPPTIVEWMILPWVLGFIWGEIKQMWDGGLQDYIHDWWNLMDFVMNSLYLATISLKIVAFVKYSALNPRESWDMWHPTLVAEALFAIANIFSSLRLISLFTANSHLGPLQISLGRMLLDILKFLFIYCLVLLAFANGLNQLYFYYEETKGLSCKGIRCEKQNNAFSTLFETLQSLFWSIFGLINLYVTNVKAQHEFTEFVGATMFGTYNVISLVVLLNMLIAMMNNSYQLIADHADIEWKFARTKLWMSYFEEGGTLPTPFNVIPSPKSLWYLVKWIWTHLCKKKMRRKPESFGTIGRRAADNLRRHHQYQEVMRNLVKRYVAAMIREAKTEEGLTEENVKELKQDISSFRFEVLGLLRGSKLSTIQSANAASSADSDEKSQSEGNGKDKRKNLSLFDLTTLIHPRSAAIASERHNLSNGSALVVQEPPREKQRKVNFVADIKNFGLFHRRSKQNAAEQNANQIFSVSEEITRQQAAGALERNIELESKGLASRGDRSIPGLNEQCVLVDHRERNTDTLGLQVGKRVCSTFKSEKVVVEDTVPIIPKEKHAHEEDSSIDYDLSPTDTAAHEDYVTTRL

[2] = A cytotoxicity screen of small molecule inhibitors of the PhoP region in Salmonella typhi identified in the primary screen. [Related pubchem assays: 1850, 1864, 1985 ]; type: functional
[3] = target: T2, Rac GTPase-activating protein 1 (Homo sapiens, UniProt Q9H0H5); assay: MgcRacGAP GTPase-activating activity inhibitors, confirmation, biochemical, ADP Hunter fluorescence, primary and confirmatory (AID 624330); type: functional
T2 sequence (Q9H0H5 whole entry): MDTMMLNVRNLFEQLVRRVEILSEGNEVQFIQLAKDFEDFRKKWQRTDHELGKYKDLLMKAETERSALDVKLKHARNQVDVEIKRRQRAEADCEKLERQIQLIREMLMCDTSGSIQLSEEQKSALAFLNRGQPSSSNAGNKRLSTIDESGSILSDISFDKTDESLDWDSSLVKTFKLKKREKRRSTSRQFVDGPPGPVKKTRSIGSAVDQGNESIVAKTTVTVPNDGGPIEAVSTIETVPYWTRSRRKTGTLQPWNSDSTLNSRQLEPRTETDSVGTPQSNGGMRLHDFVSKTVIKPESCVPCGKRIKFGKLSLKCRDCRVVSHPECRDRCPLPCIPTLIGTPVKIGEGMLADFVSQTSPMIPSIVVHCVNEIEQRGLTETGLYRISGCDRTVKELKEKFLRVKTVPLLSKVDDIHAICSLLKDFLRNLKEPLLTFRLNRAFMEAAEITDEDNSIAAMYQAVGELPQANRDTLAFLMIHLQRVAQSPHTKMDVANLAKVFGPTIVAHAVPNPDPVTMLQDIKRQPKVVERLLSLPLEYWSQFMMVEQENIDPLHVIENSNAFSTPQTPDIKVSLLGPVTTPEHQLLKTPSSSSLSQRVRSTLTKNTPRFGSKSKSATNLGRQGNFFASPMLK

Genome polyprotein = Genome polyprotein (dengue virus type 2, UniProt P29990); assay: Dengue-2 NS5 methyltransferase inhibitors, primary screen, biochemical, confirmation dose response (AID 588689); type: functional
Cytochrome P450 2D6 = Cytochrome P450 2D6 (Homo sapiens, UniProt P10635);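 further: CYP2D6 member of a cytochrome P450 panel assay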
[4] = target: DNA dC->dU-editing enzyme APOBEC-3G (Homo sapiens, UniProt Q9HC16); assay: Dose Response confirmation of small molecule APOBEC3G DNA Deaminase Inhibitors via a fluorescence-based single-stranded DNA deaminase assay. [Related pubchem assays (depositor defined):AID493012, AID493028]; type: functional
Streptococcus = assay: Group A Streptococcus viability loss, dose response, counter-screen for streptokinase expression inhibitor project, luminescence, BacTiterGlo (AID 1915); type: functional, organism-based;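 further: potency for reduction of bacterial viability or growth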
[5] = THP-1 cell cytotoxicity, dose response, cytotoxicity control for non-replicating M. tuberculosis project (AID 489025); type: functional
[6] = target: T1, Short transient receptor potential channel 4; assay: mouse TRPC4 channel activators, dose response, cell-based, HEK293 TRPC4/mu-opioid, Fluo-4 calcium (AID 434937); type: functional
[7] = C. albicans growth with fluconazole, confirmation, fluorescence, retest (AID 2467); type: functional, cell-based
cells = type: functional
[8] = tested on: Streptococcus sp. 'group A'; assay: growth inhibition of control SK(-) GAS strain, dose response, counter-screen for streptokinase expression inhibitor project, luminescence, kanamycin, BacTiterGlo, confirmation (AID 1900); type: functional, organism-based
[9] = cytotoxicity toward NIH3T3 fibroblasts, dose response, counter-screen, cell-based, ATP luminescence, mouse fibroblasts (AID 2010); type: functional;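 further: cells exposed to compound for about 90 hours before reading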
[10] = inhibitors of intracellular T. cruzi replication, confirmation, NIH3T3 host cells, beta-gal luminescence (AID 2044); type: functional, cell-based;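 further: intracellular parasites grown in NIH/3T3 mouse fibroblasts as host cells; luminescent beta-galactosidase reporter signal from transgenic T. cruzi replicating inside host cells; inhibitors lower the luminescence signal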
[11] = NIH-3T3 fibroblast cytotoxicity, dose response, cytotoxicity control, cell-based, fluorescence, Alamar Blue, secondary assay (AID 2327); type: functional;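 further: NIH-3T3 mouse fibroblasts cultured with fluconazole at 8 µg/mL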
[12] = target: T3, Microphthalmia-associated transcription factor (Homo sapiens, UniProt O75030); assay: TRPM1 promoter luciferase signal decrease, dose response, MITF inhibitor project, cell-based, SK-MEL-5, cherry-picked, set 3 (AID 493073); type: functional
T3 sequence (O75030 whole entry): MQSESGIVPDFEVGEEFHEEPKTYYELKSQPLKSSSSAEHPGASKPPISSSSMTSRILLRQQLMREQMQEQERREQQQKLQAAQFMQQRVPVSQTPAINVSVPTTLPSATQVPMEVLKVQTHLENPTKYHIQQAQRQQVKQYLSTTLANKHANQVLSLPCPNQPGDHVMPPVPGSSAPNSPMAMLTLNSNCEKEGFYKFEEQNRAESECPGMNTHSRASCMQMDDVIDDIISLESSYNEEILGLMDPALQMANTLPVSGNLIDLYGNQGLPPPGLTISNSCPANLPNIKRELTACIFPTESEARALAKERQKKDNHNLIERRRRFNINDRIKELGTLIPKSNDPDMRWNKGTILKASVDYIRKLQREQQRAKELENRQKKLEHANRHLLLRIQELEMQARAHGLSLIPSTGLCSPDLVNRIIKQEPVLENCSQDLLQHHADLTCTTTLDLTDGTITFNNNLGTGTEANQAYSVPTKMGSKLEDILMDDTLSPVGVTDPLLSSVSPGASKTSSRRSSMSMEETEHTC

Cytochrome P450 2C19 = Cytochrome P450 2C19 (Homo sapiens, UniProt P33261); assay: Cytochrome panel assay with activity outcomes. Panel member name: p450-cyp2c19 Compounds with AC50 equal or less than 10 uM are considered active; type: functional; details: read-out: AC50
HEK293 [13] = assay: cells; details: Homo sapiens
HEK293 [14] = assay: NOD2 signaling inhibitors in MDP-stimulated cells, cell-based, uHTS, luminescence (AID 2001); type: functional; details: Homo sapiens
HEK293 [15] = assay: cells; type: functional, cell-based; details: Homo sapiens
INS1 = assay: beta cell apoptosis inhibitors, cytokine rescue, dose response, luminescence, retest (AID 449756); type: functional, cell-based; details: Rattus norvegicus;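 further: cell death triggered by IL-1 beta plus TNF-alpha plus IFN-gamma mixture; protective hits raise ATP signal compared with cytokine alone wells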
[16] = target: T4, Nucleotide-binding oligomerization domain-containing protein 1 (Homo sapiens, UniProt Q9Y239); assay: NOD1 signaling inhibitors, SAR follow-up, revised (AID 2333); type: functional
T4 sequence (Q9Y239 whole entry): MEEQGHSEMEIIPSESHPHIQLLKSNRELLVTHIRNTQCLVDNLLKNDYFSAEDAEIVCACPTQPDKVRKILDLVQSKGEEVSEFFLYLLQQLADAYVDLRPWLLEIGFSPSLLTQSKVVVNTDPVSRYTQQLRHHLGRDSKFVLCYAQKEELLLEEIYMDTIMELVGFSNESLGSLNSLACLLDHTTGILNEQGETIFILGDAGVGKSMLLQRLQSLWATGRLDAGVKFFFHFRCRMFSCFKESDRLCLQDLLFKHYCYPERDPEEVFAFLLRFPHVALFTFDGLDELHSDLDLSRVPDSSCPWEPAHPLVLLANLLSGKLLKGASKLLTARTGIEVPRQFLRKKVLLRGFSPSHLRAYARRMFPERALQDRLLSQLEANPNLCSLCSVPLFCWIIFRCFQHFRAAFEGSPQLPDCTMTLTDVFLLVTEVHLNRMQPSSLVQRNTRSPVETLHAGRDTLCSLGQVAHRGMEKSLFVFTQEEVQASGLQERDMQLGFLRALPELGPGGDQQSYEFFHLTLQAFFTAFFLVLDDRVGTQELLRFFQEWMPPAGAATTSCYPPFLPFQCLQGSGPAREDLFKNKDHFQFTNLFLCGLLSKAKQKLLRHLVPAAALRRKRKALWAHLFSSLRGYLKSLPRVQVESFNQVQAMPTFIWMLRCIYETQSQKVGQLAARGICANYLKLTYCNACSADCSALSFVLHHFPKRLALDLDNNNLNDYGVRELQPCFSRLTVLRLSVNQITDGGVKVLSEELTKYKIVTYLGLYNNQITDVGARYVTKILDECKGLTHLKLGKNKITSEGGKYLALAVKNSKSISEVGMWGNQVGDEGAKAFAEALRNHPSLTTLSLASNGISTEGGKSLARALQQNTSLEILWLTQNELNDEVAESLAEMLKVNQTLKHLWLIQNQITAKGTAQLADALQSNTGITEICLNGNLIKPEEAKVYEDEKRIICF

HEK293 [17] = assay: NOD1 signaling inhibitors, primary screen, cell-based, luminescence, uHTS (AID 1578); type: functional; details: Homo sapiens
Tumor necrosis factor = Tumor necrosis factor (Homo sapiens, UniProt P01375); assay: TNFa-triggered NF-kB activation inhibitors, SAR follow-up, cell-based, revised (AID 2337); type: functional
HEK293 [18] = assay: cells; type: functional, cell-based; details: Homo sapiens; remark: listed apart in the source
Cytochrome P450 2C9 = Cytochrome P450 2C9 (Homo sapiens, UniProt P11712)
Chain of Cytochrome P450 2C9 (P11712 whole entry): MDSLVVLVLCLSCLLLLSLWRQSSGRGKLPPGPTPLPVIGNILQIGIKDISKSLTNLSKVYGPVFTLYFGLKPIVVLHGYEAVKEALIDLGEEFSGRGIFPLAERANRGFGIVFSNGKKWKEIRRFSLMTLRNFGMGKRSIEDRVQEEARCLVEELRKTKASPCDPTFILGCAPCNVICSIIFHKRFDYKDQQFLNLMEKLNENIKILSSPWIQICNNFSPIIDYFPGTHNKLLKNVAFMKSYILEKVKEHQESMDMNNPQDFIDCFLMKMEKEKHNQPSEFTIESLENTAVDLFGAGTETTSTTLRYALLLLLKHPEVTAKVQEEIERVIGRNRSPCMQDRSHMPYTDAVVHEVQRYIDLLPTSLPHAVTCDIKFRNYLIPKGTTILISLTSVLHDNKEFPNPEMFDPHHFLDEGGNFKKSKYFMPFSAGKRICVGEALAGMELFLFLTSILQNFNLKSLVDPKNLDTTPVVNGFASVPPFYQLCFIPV

Chain of Cytochrome P450 2D6 (P10635 whole entry): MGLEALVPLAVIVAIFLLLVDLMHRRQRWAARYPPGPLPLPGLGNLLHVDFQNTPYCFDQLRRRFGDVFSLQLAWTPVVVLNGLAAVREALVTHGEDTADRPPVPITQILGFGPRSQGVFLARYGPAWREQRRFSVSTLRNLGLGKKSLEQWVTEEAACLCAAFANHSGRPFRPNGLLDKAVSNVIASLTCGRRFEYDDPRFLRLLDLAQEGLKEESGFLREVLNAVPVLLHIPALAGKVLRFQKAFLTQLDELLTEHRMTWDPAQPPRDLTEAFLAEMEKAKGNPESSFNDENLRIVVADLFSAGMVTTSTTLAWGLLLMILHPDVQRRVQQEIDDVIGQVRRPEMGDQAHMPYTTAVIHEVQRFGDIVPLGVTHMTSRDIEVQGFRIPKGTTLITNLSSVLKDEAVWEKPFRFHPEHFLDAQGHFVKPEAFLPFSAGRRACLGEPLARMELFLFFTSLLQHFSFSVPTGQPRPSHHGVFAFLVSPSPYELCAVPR
Chain of Cytochrome P450 2C19 (P33261 whole entry): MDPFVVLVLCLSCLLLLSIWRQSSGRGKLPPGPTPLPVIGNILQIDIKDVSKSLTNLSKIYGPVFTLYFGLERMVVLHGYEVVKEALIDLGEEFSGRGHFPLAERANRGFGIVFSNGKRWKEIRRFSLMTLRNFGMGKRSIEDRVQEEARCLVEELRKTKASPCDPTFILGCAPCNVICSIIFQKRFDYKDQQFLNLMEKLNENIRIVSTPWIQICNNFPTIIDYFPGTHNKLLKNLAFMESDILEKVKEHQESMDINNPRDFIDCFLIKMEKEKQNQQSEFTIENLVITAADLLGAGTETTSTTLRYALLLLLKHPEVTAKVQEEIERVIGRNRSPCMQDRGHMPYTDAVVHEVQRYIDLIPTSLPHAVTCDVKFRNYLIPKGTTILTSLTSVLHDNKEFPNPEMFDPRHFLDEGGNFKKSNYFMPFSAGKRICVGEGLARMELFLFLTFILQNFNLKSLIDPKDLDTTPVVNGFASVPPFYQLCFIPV
Chain of DNA dC->dU-editing enzyme APOBEC-3G (Q9HC16 whole entry): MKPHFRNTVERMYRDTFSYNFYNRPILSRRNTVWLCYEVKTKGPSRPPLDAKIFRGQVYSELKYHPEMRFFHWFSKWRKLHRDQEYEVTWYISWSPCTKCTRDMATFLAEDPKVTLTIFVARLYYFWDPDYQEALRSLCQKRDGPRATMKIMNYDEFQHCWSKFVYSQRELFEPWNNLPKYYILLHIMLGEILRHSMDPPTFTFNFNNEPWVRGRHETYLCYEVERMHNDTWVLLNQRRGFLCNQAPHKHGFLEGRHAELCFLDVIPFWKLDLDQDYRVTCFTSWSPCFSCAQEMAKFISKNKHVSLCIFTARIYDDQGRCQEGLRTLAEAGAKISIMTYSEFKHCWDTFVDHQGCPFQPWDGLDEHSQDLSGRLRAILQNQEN
Chain of Genome polyprotein (P29990 2492-3391 limits assumed): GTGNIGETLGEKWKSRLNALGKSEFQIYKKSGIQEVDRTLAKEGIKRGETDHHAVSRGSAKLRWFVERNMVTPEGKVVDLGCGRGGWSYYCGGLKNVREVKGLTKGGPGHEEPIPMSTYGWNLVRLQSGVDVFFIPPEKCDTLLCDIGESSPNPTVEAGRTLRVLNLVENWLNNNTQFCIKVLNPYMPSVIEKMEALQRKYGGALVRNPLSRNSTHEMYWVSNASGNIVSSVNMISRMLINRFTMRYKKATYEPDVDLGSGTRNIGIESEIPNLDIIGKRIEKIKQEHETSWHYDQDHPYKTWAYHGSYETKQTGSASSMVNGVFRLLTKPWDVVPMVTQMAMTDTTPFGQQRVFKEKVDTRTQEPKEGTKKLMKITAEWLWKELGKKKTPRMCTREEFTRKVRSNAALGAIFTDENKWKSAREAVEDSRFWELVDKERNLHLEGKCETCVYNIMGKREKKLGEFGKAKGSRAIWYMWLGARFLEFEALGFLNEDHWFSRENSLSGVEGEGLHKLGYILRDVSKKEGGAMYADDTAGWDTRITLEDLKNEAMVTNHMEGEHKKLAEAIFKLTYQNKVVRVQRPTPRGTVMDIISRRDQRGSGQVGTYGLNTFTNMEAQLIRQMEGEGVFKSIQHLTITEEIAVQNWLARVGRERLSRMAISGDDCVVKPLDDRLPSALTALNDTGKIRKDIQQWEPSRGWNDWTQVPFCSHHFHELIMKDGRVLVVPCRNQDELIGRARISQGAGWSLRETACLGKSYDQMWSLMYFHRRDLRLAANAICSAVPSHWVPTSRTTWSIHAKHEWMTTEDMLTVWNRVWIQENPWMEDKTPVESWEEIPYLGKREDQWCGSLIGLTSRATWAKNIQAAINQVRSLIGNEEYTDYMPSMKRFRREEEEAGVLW
Chain of Tumor necrosis factor (P01375 whole entry): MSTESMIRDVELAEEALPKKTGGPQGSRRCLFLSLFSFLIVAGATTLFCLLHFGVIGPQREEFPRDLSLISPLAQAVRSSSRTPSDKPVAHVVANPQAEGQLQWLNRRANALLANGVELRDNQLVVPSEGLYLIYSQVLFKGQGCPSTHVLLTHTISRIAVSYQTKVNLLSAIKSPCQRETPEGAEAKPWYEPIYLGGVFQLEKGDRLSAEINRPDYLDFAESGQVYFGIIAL

OC1(c2ccc(F)cc2)CCN(Cc2ccccc2)C1 (stereo not given)
EC50 [1]: 2.99 µM (active)

CCCCN(CCCC)CCNC(=O)CSCc1ccc(C)cc1
EC50 [2]: > 50 µM (active) | IC50 [3]: 147 µM (active)

O=C1C(=NO)CCc2ccccc21
IC50 (Genome polyprotein): 88.6 µM (active)

COc1ccc(C(=O)Nc2ccc(NC(=O)c3ccco3)c(Cl)c2)cc1OC
AC50 (Cytochrome P450 2D6): inconclusive

Cc1cc(-c2nnc(S)n2/N=C/c2ccco2)[nH]n1
IC50 [4]: 14.2 µM (active)

O=C(CSc1ccccc1)Nc1nnc(COc2ccc(Cl)cc2)s1
IC50 [4]: 32.3 µM (active)

O=C(NC(=S)NNC(=O)[C@H]1C[C@@H]1c1ccccc1)c1cccc(F)c1
EC50 (Streptococcus): 3.65 µM (active) | CC50 [5]: > 40 µM (active) | EC50 [6]: 4.22 µM (active) | EC50 [7]: 1.91 µM (active) | IC50 (cells): 18.8 µM (active) | EC50 [8]: 1.89 µM (active) | EC50 [9]: 17.6 µM (active) | EC50 [10]: 3.91 µM (active) | EC50 [11]: > 160 µM (inactive)

COCCn1c(C)cc(C(=O)CSc2nnc(C)s2)c1C
AC50 [12]: 3.04 µM (active)

CCOC(=O)CSc1nnc(NC(=O)c2cccc(S(=O)(=O)N3CCCCCC3)c2)s1
AC50 (Cytochrome P450 2D6): inconclusive | AC50 (Cytochrome P450 2C19): 2 µM (inconclusive)

CN(C)S(=O)(=O)c1cccc(CSCc2cccc(S(=O)(=O)N(C)C)c2)c1
IC50 (HEK293 [13]): > 20 µM (inactive) | IC50 (HEK293 [14]): 5 µM (active) | IC50 (HEK293 [15]): 3.06 µM (active) | AC50 (INS1): 3.3 µM (active) | IC50 [16]: 2.12 µM (active) | EC50 (HEK293 [17]): 1.3 µM (active) | IC50 (Tumor necrosis factor): 2.09 µM (active) | IC50 (HEK293 [18]): > 20 µM (inactive)

Fc1nc(N2CCCC2)c(F)c(Oc2ccccc2Oc2c(F)c(F)nc(N3CCCC3)c2F)c1F
AC50 (Cytochrome P450 2C9): 1 µM (inconclusive) | AC50 (Cytochrome P450 2D6): inconclusive | AC50 (Cytochrome P450 2C19): 5.62 µM (inconclusive)
